The results in this text go back to the OligoGym collection.

This data set deals with SNHG14. The following applies: ASO, Human Neuronal Cell.

After the bases stand the sugars from the 5' end (letter, count) and the backbone: PS all phosphorothioate, else s phosphorothioate and o phosphodiester by linkage. Methylation of C is not given here. l = locked nucleic acid (LNA); d = 2'-deoxy (DNA)

In turn, “TTGATTCAATTCCCTTA (sugars ldllddddddddlddll, PS)” gave a target mRNA inhibition (7.5 µM) of 62%.

Take “TTGATTCAATTCCCTTA (sugars lldldddddddldldll, PS)”: the target mRNA inhibition (7.5 µM) turned out to be 59%.

Regarding “TTGTCTCTAATCCTATT (sugars l2 d11 l4, PS)”, the target mRNA inhibition by setting is: (0.2 µM) 24%; (1 µM) 52%.

TTTAACCTTGCTTATA (sugars l2 d10 l4, PS): the target mRNA inhibition by setting is: (0.2 µM) 23%; (1 µM) 25%.

“TTTACACTTAATTATACTTC (sugars ldddlldddddddllddlll, PS)” came in with a target mRNA inhibition (7.5 µM) of 60%.

“TTTACACTTAATTATACTTC (sugars lllddldddddddlldllll, PS)” displayed a target mRNA inhibition (7.5 µM) of 15%.

As for “TTTACATTCCCATCATC (sugars l2 d11 l4, PS)”, the target mRNA inhibition is, setting by setting: (0.2 µM) 57%; (1 µM) 66%.

In the case of TTTATACCCTTTCCAA (sugars l2 d10 l4, PS), the target mRNA inhibition reads like this: (0.2 µM) 55%; (1 µM) 63%.

For “TTTATACCTTTCTTTAACCC (sugars l1 d15 l1 d1 l2, PS)”, the target mRNA inhibition (7.5 µM) was 36%.

Turning to “TTTATACCTTTCTTTAACCC (sugars lddddddddddddldlddll, PS)”, the target mRNA inhibition (7.5 µM) worked out at 52%.

Regarding “TTTATACCTTTCTTTAACCC (sugars lddddlddddddddddldll, PS)”, the target mRNA inhibition (7.5 µM) was 63%.

“TTTATCAATATCTTCTCA (sugars l1 d2 l1 d10 l4, PS)” came in with a target mRNA inhibition (7.5 µM) of 53%.

In turn, “TTTATCAATATCTTCTCA (sugars lddlllddddddlddlll, PS)” yielded a target mRNA inhibition (7.5 µM) of 60%.

For “TTTATCAATATCTTCTCAC (sugars l1 d4 l1 d9 l4, PS)”, the target mRNA inhibition (7.5 µM) is 52%.

“TTTATCAATATCTTCTCACT (sugars lddlddldddddddddldll, PS)” had a target mRNA inhibition (7.5 µM) of 58%.

“TTTATCTATTTAATTTACA (sugars l4 d13 l2, PS)” returned a target mRNA inhibition (0.2 µM) of 7% and a target mRNA inhibition (1 µM) of 6%.

Sequence “TTTATTTCCATTTATTTTC (sugars l5 d7 l1 d3 l3, PS)” gave a target mRNA inhibition (7.5 µM) of 55%.

For “TTTATTTCCATTTATTTTC (sugars llddlldddddddldllll, PS)”, the target mRNA inhibition (7.5 µM) stood at 66%.

Regarding TTTCCAATGAATCTAT (sugars l2 d10 l4, PS), the target mRNA inhibition is, setting by setting: (0.2 µM) 21%; (1 µM) 36%.

On to TTTCCATCTACTATTA (sugars l4 d10 l2, PS), for which the target mRNA inhibition by setting is: (0.2 µM) 60%; (1 µM) 67%.

Consider “TTTCCATTTATTTCCATTTA (sugars lddddldddddddddlddll, PS)”, for which, under “7.5 µM”, the target mRNA inhibition turned out to be 44%.

“TTTCCATTTATTTCCATTTA (sugars lddddldddddddlddldll, PS)”: the target mRNA inhibition (7.5 µM) amounted to 58%.

As for TTTGACATTCCATCTC (sugars l3 d10 l3, PS), the target mRNA inhibition is 56% (0.2 µM) and 59% (1 µM).

On to “TTTTAACCAGAGTGGCATC (sugars l4 d13 l2, PS)”, for which the target mRNA inhibition (7.5 µM) came to 45%.

Consider “TTTTTATACCTTTCTTTAAC (sugars l1 d12 l1 d2 l4, PS)”, for which, for the setting “7.5 µM”, the target mRNA inhibition is 43%.

The sequence “TTTTTATACCTTTCTTTAAC (sugars l2 d12 l3 d1 l2, PS)” gave a target mRNA inhibition (7.5 µM) of 62%.

“TTTTTATACCTTTCTTTAAC (sugars lllldddddddddldlddll, PS)”: for the setting “7.5 µM”, the target mRNA inhibition was 69%.

In the case of “TTTTTTCTTACTATCTTCAA (sugars l1 d4 l1 d10 l4, PS)”, the target mRNA inhibition (7.5 µM) is 55%.

“TTTTTTCTTACTATCTTCAA (sugars ldllldldddddddddldll, PS)” registered a target mRNA inhibition (7.5 µM) of 58%.

Where the note is “7.5 µM”, “TTTTTTCTTACTATCTTCAA (sugars llddldldddddddldldll, PS)” came in with a target mRNA inhibition of 60%.

As to “TTTTTTCTTACTATCTTCAA (sugars lldlldlddddddddlddll, PS)”, under “7.5 µM”, the target mRNA inhibition came to 58%.

“TTTTTTTCTTACTATCTTCA (sugars l1 d2 l2 d13 l2, PS)” returned a target mRNA inhibition (7.5 µM) of 43%.
